In patent US7879837B2, “Therapeutic or prophylactic agent for multiple sclerosis” (Toray Industries, Inc., priority 2006, dated 2011):
pIC50: −log10 of the molar value. Structures can show the parent of a compound that is named as a salt. Where two headings read alike, the source gives them in different places.

Legend:
Jurkat cells = assay: Measurement of Inhibitory Effect on Leukocyte Functions (adhesion of Jurkat cells to ligand-expressing cells or ligand-immobilized plate); type: cell-based; conditions: Homo sapiens, 0.5 h, read-out: IC50 (concentration at which the number of adherent cells is reduced by 50%)
Experimental: Jurkat cells, which are the cell line originated from human acute T cell […], were allowed to react with BCECF-AM at 37° C. for 20 minutes to fluorescently label the cells. The fluorescently labelled Jurkat cells were allowed to react with ligand-expressing cells or with a ligand-immobilized plate at 37° C. for 30 minutes. After removing non-adherent cells by washing, 1% NP40 was added thereto to lyse the adherent cells, and fluorescence intensity was measured with Cytofluor 2300 (Millipore). From the obtained fluorescence intensity, the number of adherent cells was calculated. Each test compound was reacted with the Jurkat cells before the beginning of the adhesion reaction. In Table 18, the IC50 of each compound (i.e. the concentration at which the number of adherent cells is reduced by 50%) is shown.

[1] = Pharmacokinetic Evaluation in Rats; type: in vivo; conditions: rat, male SD rats, administered orally or intravenously, 0.5 mg/mL dosing solution, plasma up to 8 hours; for clearance: intravenous, read-out: CLtot (total clearance) (converted); for bioavailability: oral, read-out: BA (bioavailability)
Experimental: Each compound was dissolved in PBS or PBS containing 10% PEG, thereby preparing 0.5 mg/mL dosing solution. The compound was administered orally or intravenously to male SD rats (7 to 9 weeks old). Blood was collected with time from the tail vein at time points up to 8 hours after the administration, and obtained blood was centrifuged to collect blood plasma. The blood plasma was pretreated by using the solid-phase extraction method, and the concentration of the compound was analyzed with LC/MS/MS (ESI negative mode).
As the Comparative Compound, 2-[4-((3,5-dichlorobenzensulfonylamino)methyl)benzoylamino]-5-(4-(methyl-pyrimidin-2-ylamino)phenyl)pent-4-enoic acid (XXI) described in WO 99/26923 was used.

[2] = test system: Mouse Experimental Autoimmune Encephalomyelitis Model; assay: Inhibitory Effect of Compounds Against Mouse Experimental Autoimmune Encephalomyelitis Model; type: in vivo; conditions: orally 50 mg/kg every day from one day before inoculation of PLP139-151; female SJL mouse; scored at Days 11, 12 or 14
Experimental: This method was carried out in accordance with the literature “Int. Immunol., 9, 1243-1251 (1997)”.
A PBS solution containing 2 mg/mL partial synthetic peptide (PLP139-151) of proteolipid protein was mixed with an equal amount of Freund's complete adjuvant, and the resulting mixture was inoculated intracutaneously into both lateral regions of 7-week-old female SJL mouse (Charles River Laboratories Japan) in a total amount of 0.1 mL (0.05 mL per one side). The compounds described in Example 77, Example 78, Example 80, Example 81, Example 83 and Example 84 were orally administered at a dose of 50 mg/kg every day from one day before the inoculation, and neurological symptoms was scored (0: normal, 1: limp tail or hind limb weakness, 2: limp tail and hind limb weakness, 3: partial hind limb paralysis, 4: complete hind limb paralysis, 5: moribund state) at Days 11, 12 or 14. The scoring was carried out by using the method described in Current Protocols in Immunology (John Wiley & Sons, Inc).

[3] = Jurkat cell adhesion to ligand-expressing cells or ligand-immobilized plate, 37° C., 30 minutes

For `CCCCN(c1ccc(/C=C/CC(NC(=O)c2c(Cl)cccc2Cl)C(=O)O)cc1)c1ncccn1` (stereo not shown) [Example 37, (E)-5-(4-Butyl-pyrimidin-2-yl-amino)-phenyl]-2-(2,6-dichlorobenzamido)-pent-4-enoic acid sodium salt], the pIC50 (Jurkat cells) was 6.80.

`CC(C)=CCN(c1ccc(/C=C/CC(NC(=O)c2c(Cl)cccc2Cl)C(=O)O)cc1)c1ncccn1` (stereo not shown) [Example 51, (E)-2-(2,6-Dichlorobenzamido)-5-[4-((3-methyl-2-butenyl)-pyrimidin-2-ylamino)phenyl]pent-4-enoic acid sodium salt] gave a pIC50 (Jurkat cells; [3]) of 7.00.

In the case of `O=C(NC(C/C=C/c1ccc(N(CC2CC2)c2ncccn2)cc1)C(=O)O)c1c(Cl)cccc1Cl` (stereo not shown) [Example 53, (E)-5-[4-(Cyclopropylmethyl-pyrimidin-2-ylamino)phenyl]-2-(2,6-dichlorobenzamido)pent-4-enoic acid sodium salt], the pIC50 (Jurkat cells) was 6.92.

`CC(C)CN(c1ccc(/C=C/CC(NC(=O)c2c(Cl)cccc2Cl)C(=O)O)cc1)c1ncccn1` (stereo not shown) [Example 55, (E)-2-(2,6-Dichlorobenzamido)-5-[4-(isobutyl-pyrimidin-2-ylamino)phenyl]pent-4-enoic acid sodium salt] gave a pIC50 (Jurkat cells) of 6.38.

For `COC1(c2ccc(/C=C/C[C@H](NC(=O)c3c(Cl)cccc3Cl)C(=O)O)cc2)CCOCC1` [Example 77, (S,E)-2-(2,6-Dichlorobenzamido)-5-[4-(4-methoxytetrahydropyran-4-yl)-phenyl]pent-4-enoic acid], the clearance [1] was 16 mL/min/kg, the bioavailability [1] was 20% and the “rate of reduction of increase in the score of neurological symptoms” value [2] was 40%. It also gave a pIC50 (Jurkat cells; [3]) of 7.31.

For `COC1(c2ccc(/C=C/C[C@H](NC(=O)c3c(Cl)cccc3Cl)C(=O)[O-])cc2)CCOCC1.[Na+]` [Example 78, (S,E)-2-(2,6-Dichlorobenzamido)-5-[4-(4-methoxytetrahydropyran-4-yl)-phenyl]pent-4-enoic acid sodium salt], the clearance [1] was 16.6 mL/min/kg, the bioavailability [1] was 26.1% and the “rate of reduction of increase in the score of neurological symptoms” value [2] was 60%.

With `CN(c1ccc(/C=C/C[C@H](NC(=O)c2c(Cl)cccc2Cl)C(=O)O)cc1)c1ncccn1` [Example 80, (S,E)-2-(2,6-Dichlorobenzamido)-5-[4-(methyl-pyrimidin-2-ylamino)phenyl]pent-4-enoic acid] the clearance [1] was 15.1 mL/min/kg, the bioavailability [1] was 47.6% and the “rate of reduction of increase in the score of neurological symptoms” value [2] was 60%. For the same compound, the pIC50 (Jurkat cells; [3]) was 7.02.

With `CN(c1ccc(/C=C/C[C@H](NC(=O)c2c(Cl)cccc2Cl)C(=O)[O-])cc1)c1ncccn1.[Na+]` [Example 81, (S,E)-2-(2,6-Dichlorobenzamido)-5-[4-(methyl-pyrimidin-2-ylamino)phenyl]pent-4-enoic acid sodium salt] the clearance [1] was 16.1 mL/min/kg, the bioavailability [1] was 50.9% and the “rate of reduction of increase in the score of neurological symptoms” value [2] was 68%.

With `CC(C)N(c1ccc(/C=C/C[C@H](NC(=O)c2c(Cl)cccc2Cl)C(=O)O)cc1)c1ncccn1` [Example 83, (S,E)-2-(2,6-Dichlorobenzamido)-5-[4-(isopropyl-pyrimidin-2-ylamino)phenyl]pent-4-enoic acid] the clearance [1] was 18.1 mL/min/kg, the bioavailability [1] was 40% and the “rate of reduction of increase in the score of neurological symptoms” value [2] was 70%. It also gave a pIC50 (Jurkat cells; [3]) of 7.77.

In the case of `CC(C)N(c1ccc(/C=C/C[C@H](NC(=O)c2c(Cl)cccc2Cl)C(=O)[O-])cc1)c1ncccn1.[Na+]` [Example 84, (S,E)-2-(2,6-Dichlorobenzamido)-5-[4-(isopropyl-pyrimidin-2-ylamino)phenyl]pent-4-enoic acid sodium salt], the clearance [1] was 19.6 mL/min/kg, the bioavailability [1] was 58.5% and the “rate of reduction of increase in the score of neurological symptoms” value [2] was 67%.
